ChEMBL document CHEMBL4017541, “Membrane-Active Hydantoin Derivatives as Antibiotic Agents” (J Med Chem, 2017)
≈ marks a conversion by molar mass, not a printed value. Calls of active or inactive are those of the source. The rule behind the calls is not given here.

How the values were obtained:
[1] = system: Staphylococcus aureus; assay: Antimicrobial activity against methicillin resistant Staphylococcus aureus ATCC 33591 after 16 hrs; format: functional; settings: ATCC 33591, 16 h
[2] = system: Staphylococcus epidermidis; assay: Antimicrobial activity against methicillin resistant Staphylococcus epidermidis RP62A after 16 hrs; format: functional
[3] = system: Enterococcus faecalis; assay: Antimicrobial activity against vancomycin resistant Enterococcus faecalis ATCC 700802 after 16 hrs; format: functional; settings: ATCC 700802, 16 h
[4] = system: Escherichia coli; assay: Antimicrobial activity against Escherichia coli ATCC 25922 after 16 hrs; format: functional; settings: ATCC 25922, 16 h
[5] = system: Pseudomonas aeruginosa; assay: Antimicrobial activity against Pseudomonas aeruginosa ATCC 27853 after 16 hrs; format: functional; settings: ATCC 27853, 16 h
[6] = system: Klebsiella pneumoniae; assay: Antimicrobial activity against Klebsiella pneumoniae ATCC 13383 after 16 hrs; format: functional; settings: ATCC 13383, 16 h
[7] = Retention time of compound by HPLC analysis
[8] = Selectivity index, ratio of HC50 for mouse RBC to MIC for methicillin resistance Staphylococcus aureus ATCC 33591
[9] = system: HCT-116; assay: Cytotoxicity against human HCT116 cells; format: cell-based
[10] = system: Staphylococcus aureus; assay: Induction of membrane disruption in methicillin resistance Staphylococcus aureus ATCC 33591 at 5 ug/ml after 2 hrs by propidium iodide/4', 6'-diamidino-2-phenylindole dihydrochloride dye based fluorescence microscopy; format: functional
[11] = system: Escherichia coli; assay: Induction of membrane disruption in Escherichia coli ATCC 25922 at 5 ug/ml after 2 hrs by propidium iodide/4', 6'-diamidino-2-phenylindole dihydrochloride dye based fluorescence microscopy; format: functional
[12] = system: Staphylococcus aureus; assay: Bactericidal activity against methicillin resistance Staphylococcus aureus ATCC 33591 at 25 ug/ml after 10 mins by time kill analysis; format: functional
[13] = system: Staphylococcus aureus; assay: Bactericidal activity against methicillin resistance Staphylococcus aureus ATCC 33591 at 2 ug/ml after 60 mins by time kill analysis; format: functional
[14] = system: Escherichia coli; assay: Bactericidal activity against Escherichia coli ATCC 25922 at 25 to 50 ug/ml after 30 mins by time kill analysis; format: functional
[15] = system: Escherichia coli; assay: Bactericidal activity against Escherichia coli ATCC 25922 at 4 ug/ml after 60 mins by time kill analysis; format: functional
[16] = system: Staphylococcus aureus; assay: Antibacterial activity against methicillin resistance Staphylococcus aureus ATCC 33591 after 14 serial passage at 0.5 times MIC after 16 hrs; format: functional
[17] = system: Staphylococcus aureus; assay: Antibacterial activity against methicillin resistance Staphylococcus aureus ATCC 33591 infected in Wistar rat assessed as reduction in bacterial load in bronchoalveolar lavage of lungs at 10 mg/kg, iv treated 24 hrs post infection measured after 3 days relative to control; format: functional; parameters: scale not given: the % may be the effect or the level left
[18] = system: Staphylococcus aureus; assay: Antibacterial activity against methicillin resistance Staphylococcus aureus ATCC 33591 infected in Wistar rat assessed as reduction in bacterial load in bronchoalveolar lavage of lungs at 10 mg/kg, iv treated 24 hrs post infection measured after 5 days relative to control; format: functional; parameters: scale not given: the % may be the effect or the level left
[19] = system: Staphylococcus aureus; assay: Antibacterial activity against methicillin resistant Staphylococcus aureus ATCC 33591 infected in Wistar rat assessed as reduction in lung inflammation at 10 mg/kg, iv treated 24 hrs post infection measured after 5 days by hematoxylin/ eosin staining based microscopic analysis; format: functional, organism-based
[20] = system: Staphylococcus aureus; assay: Antibacterial activity against methicillin resistant Staphylococcus aureus ATCC 33591 infected in Wistar rat assessed as reduction in lung inflammation at 10 mg/kg, iv treated 24 hrs post infection measured after 3 days by hematoxylin/ eosin staining based microscopic analysis; format: functional, organism-based

| Structure (SMILES) | MIC [1] | MIC [2] | MIC [3] | MIC [4] | MIC [5] | MIC [6] | Retention time [7] | Selectivity Index [8] | IC50 [9] | Activity [10] | Activity [11] | Activity [12] | Activity [13] | Activity [14] | Activity [15] | Activity [16] | Activity [17] | Activity [18] | Activity [19] | Activity [20] |
| --- | --- | --- | --- | --- | --- | --- | --- | --- | --- | --- | --- | --- | --- | --- | --- | --- | --- | --- | --- | --- |
| CCCCCCCCCCCCCCCC(=O)N[C@@H](CCCCN)CN1CC(=O)N(c2cccc(Cl)c2)C1=O | 12.5 µg/mL (≈ 22.2 µM) | 12.5 µg/mL (≈ 22.2 µM) | 12.5 µg/mL (≈ 22.2 µM) | > 50 µg/mL | > 50 µg/mL | > 50 µg/mL | – | – | – | – | – | – | – | – | – | – | – | – | – | – |
| CCCCCCCCCCCCCCCC(=O)N[C@@H](CCCCN)CN1CC(=O)N(CC)C1=O | 3.12 µg/mL (≈ 6.49 µM) | 3.12 µg/mL (≈ 6.49 µM) | 3.12 µg/mL (≈ 6.49 µM) | 3.12 µg/mL (≈ 6.49 µM) | > 50 µg/mL | 12.5 µg/mL (≈ 26 µM) | < 26 min | – | – | – | – | – | – | – | – | – | – | – | – | – |
| CCCCCCCCCC(=O)N[C@@H](CCCCN)CN1CC(=O)N(C23CC4CC(CC(C4)C2)C3)C1=O | 6.25 µg/mL (≈ 12.4 µM) | 6.25 µg/mL (≈ 12.4 µM) | 12.5 µg/mL (≈ 24.9 µM) | 6.25 µg/mL (≈ 12.4 µM) | 12.5 µg/mL (≈ 24.9 µM) | 6.25 µg/mL (≈ 12.4 µM) | – | 20 | – | – | – | – | – | – | – | – | – | – | – | – |
| CCCCCCCCCCCCCCCC(=O)N[C@@H](CCCCN)CN1CC(=O)N(c2ccc(OC)cc2)C1=O | 3.12 µg/mL (≈ 5.58 µM) | 6.25 µg/mL (≈ 11.2 µM) | 6.25 µg/mL (≈ 11.2 µM) | > 50 µg/mL | > 50 µg/mL | > 50 µg/mL | – | – | – | – | – | – | – | – | – | – | – | – | – | – |
| CCCCCCCCCCCC(=O)N[C@@H](CCCCN)CN1CC(=O)N(CC)C1=O | > 50 µg/mL | > 50 µg/mL | > 50 µg/mL | 12.5 µg/mL (≈ 29.4 µM) | > 50 µg/mL | > 50 µg/mL | < 26 min | – | – | – | – | – | – | – | – | – | – | – | – | – |
| CCCCCCCCCCCCCC(=O)N[C@@H](CCCCN)CN1CC(=O)N(CCCC)C1=O | 6.25 µg/mL (≈ 13 µM) | 6.25 µg/mL (≈ 13 µM) | 6.25 µg/mL (≈ 13 µM) | 6.25 µg/mL (≈ 13 µM) | > 50 µg/mL | 12.5 µg/mL (≈ 26 µM) | – | – | – | – | – | – | – | – | – | – | – | – | – | – |
| CCCCCCCCCCCC(=O)N[C@@H](CCCCN)CN1CC(=O)N(CCCC)C1=O | 12.5 µg/mL (≈ 27.6 µM) | 25 µg/mL (≈ 55.2 µM) | 25 µg/mL (≈ 55.2 µM) | 6.25 µg/mL (≈ 13.8 µM) | 25 µg/mL (≈ 55.2 µM) | 12.5 µg/mL (≈ 27.6 µM) | < 26 min | 6.4 | – | – | – | – | – | – | – | – | – | – | – | – |
| CCCCCCCCCCCC(=O)N[C@@H](CCCCN)CN1CC(=O)N(C23CC4CC(CC(C4)C2)C3)C1=O | 6.25 µg/mL (≈ 11.8 µM) | 6.25 µg/mL (≈ 11.8 µM) | 6.25 µg/mL (≈ 11.8 µM) | 12.5 µg/mL (≈ 23.5 µM) | > 50 µg/mL | > 50 µg/mL | – | – | – | – | – | – | – | – | – | – | – | – | – | – |
| CCCCCCCCCCCC(=O)N[C@@H](Cc1ccccc1)CN1CC(=O)N(c2cccc(Cl)c2)C1=O | > 50 µg/mL | > 50 µg/mL | > 50 µg/mL | > 50 µg/mL | > 50 µg/mL | > 50 µg/mL | < 26 min | – | – | – | – | – | – | – | – | – | – | – | – | – |
| O=C1CN(/N=C/c2ccc([N+](=O)[O-])o2)C(=O)N1 [NITROFURANTOIN] | 12.5 µg/mL (≈ 52.5 µM) | 6.25 µg/mL (≈ 26.2 µM) | 12.5 µg/mL (≈ 52.5 µM) | 6.25 µg/mL (≈ 26.2 µM) | > 50 µg/mL | 25 µg/mL (≈ 105 µM) | – | – | – | – | – | – | – | – | – | – | – | – | – | – |
| CCCCCCCCCCCCCC(=O)N[C@@H](CCCCN)CN1CC(=O)N(C2CCCCC2)C1=O | 3.12 µg/mL (≈ 6.16 µM) | 6.25 µg/mL (≈ 12.3 µM) | 6.25 µg/mL (≈ 12.3 µM) | 12.5 µg/mL (≈ 24.7 µM) | > 50 µg/mL | 6.25 µg/mL (≈ 12.3 µM) | – | – | – | – | – | – | – | – | – | – | – | – | – | – |
| CCCCCCCCCCCC(=O)N[C@@H](CCCCN)CN1CC(=O)N(c2cccc(Cl)c2)C1=O | 0.5 µg/mL (≈ 0.986 µM) | 0.5 µg/mL (≈ 0.986 µM) | 0.5 µg/mL (≈ 0.986 µM) | 1 µg/mL (≈ 1.97 µM) | 1 µg/mL (≈ 1.97 µM) | 0.78 µg/mL (≈ 1.54 µM) | 28.4 min | 190 | 100 µg/mL (≈ 197 µM) | Active | Active | Active | Active | Active | Active | Active | 70% | 96% | Active | Active |
| CCCCCCCCCC(=O)N[C@@H](CCCCN)CN1CC(=O)N(CC)C1=O | > 50 µg/mL | > 50 µg/mL | > 50 µg/mL | > 50 µg/mL | > 50 µg/mL | > 50 µg/mL | < 26 min | – | – | – | – | – | – | – | – | – | – | – | – | – |
